The subject of one series is Bacillus anthracis. Description: Antimicrobial activity against Bacillus anthracis 34F2 after 18 hrs by twofold serial broth dilution method. Format: functional. The following applies: 34F2, 18 h. For orientation: Dilution methods test growth across graded concentrations, often in twofold steps.
For series [1], the system named is Bacillus subtilis. Description: Genotoxicity in rec-negative Bacillus subtilis M45 at 2 ug/9 mm disc after 24 hrs by disc diffusion method. Type of series: toxicity, organism-based.
Series [2] has as its system Bacillus subtilis. Description: Genotoxicity in rec-positive Bacillus subtilis H17 at 2 ug/9 mm disc after 24 hrs by disc diffusion method. Format: toxicity, organism-based.

Values after ≈ are worked out from the molar mass of the structure shown.

Data on 4 molecules can be found in ChEMBL document CHEMBL3400015, “Tertiary amides of Salinomycin: A new group of antibacterial agents against Bacillus anthracis and methicillin-resistant Staphylococcus epidermidis” (Bioorg Med Chem Lett, 2015).

One may read the MIC as the smallest concentration in the dilution series that meets the test's criterion for growth inhibition. Higher therefore signals a need for much substance. `CC[C@@]1([C@H]2O[C@H]([C@H]3O[C@@](O)(CO)[C@H](C)C[C@@H]3C)C[C@H]2C)CC[C@H]([C@@]2(C)CC[C@]3(C[C@H](O)[C@@H](C)[C@@H]([C@H](C)[C@H](OC)[C@@H](C)C(=O)[O-])O3)O2)O1.[Na+]` [MONENSIN SODIUM]: the MIC against Bacillus anthracis is 1 µg/mL.
For `O=[N+]([O-])c1cc[n+]([O-])c2ccccc12` [4-NITROQUINOLINE-1-OXIDE], the “diameter of the inhibition zone (DIZ)” value amounted to 24 mm in the series on Bacillus subtilis [1] and 13 mm in the series on Bacillus subtilis [2].
For `CC[C@@H](C(=O)[C@@H](C)[C@@H](O)[C@H](C)[C@@H]1O[C@@H]([C@@H](CC)C(=O)O)CC[C@@H]1C)[C@H]1O[C@]2(C=C[C@@H](O)[C@]3(CC[C@@](C)([C@H]4CC[C@](O)(CC)[C@H](C)O4)O3)O2)[C@H](C)C[C@@H]1C` [SALINOMYCIN], the “diameter of the inhibition zone (DIZ)” value with Bacillus subtilis [1] is given as 32 mm; with Bacillus subtilis [2], 31 mm. It took 1 µg/mL (≈ 1.33 µM) to inhibit growth against Bacillus anthracis (MIC).
Regarding `CC[C@@H](C(=O)[C@@H](C)[C@@H](O)[C@H](C)[C@@H]1O[C@@H]([C@@H](CC)C(=O)[O-])CC[C@@H]1C)[C@H]1O[C@]2(C=C[C@@H](O)[C@]3(CC[C@@](C)([C@H]4CC[C@](O)(CC)[C@H](C)O4)O3)O2)[C@H](C)C[C@@H]1C.[Na+]` [SALINOMYCIN SODIUM], the minimum inhibitory concentration (MIC) against Bacillus anthracis was determined as 1 µg/mL.
